In patent US8822482B2, “Icotinib hydrochloride, synthesis, crystalline forms, pharmaceutical compositions, and uses thereof” (Beta Pharma, Inc., priority 2008, dated 2014):

Assays:
[1] = tested on: BGC-823 human gastric cancer cells; assay: Tumor cell growth inhibition in vitro, MTT assay; format: cell-based
Description: (§1) Method: Cells (˜2×10^3) were seeded in 96-well plates in 200 μL of RPMI1640 cell culture medium supplemented with 10% FBS. After 24 hours at 37° C. and 5% CO2, the medium was replaced in quintuplicate wells with medium containing Icotinib hydrochloride Crystalline Form I dissolved in DMSO and then serial diluted, yielding final Icotinib concentrations of 0.05-300 μM. DMSO concentrations were less than 0.1% at the highest drug concentrations. Cells were incubated in medium alone with 0.1% DMSO as a negative control. Following a 96 hr incubation, the MTT [3-(4,5-dimethylthiazol-2-yl)-2,5-diphenyltetrazolium] colorimetric assay was performed using a microplate reader (reference wavelength 450 nm, detection wavelength 570 nm). The logarithm of drug concentration on the inhibition rate was linear, and the half inhibitory concentration of the drug (IC50) was obtained.

[2] = tested on: A431 human epidermoid carcinoma; assay: Tumor cell growth inhibition in vitro, MTT assay; format: cell-based; conditions: A-431, A431, 96 hr
Description: as §1

[3] = tested on: H460 human lung adenocarcinoma cells; assay: Tumor cell growth inhibition in vitro, MTT assay; format: cell-based
Description: as §1

[4] = tested on: HCT8 human colon cancer cells; assay: Tumor cell growth inhibition in vitro, MTT assay; format: cell-based
Description: as §1

[5] = tested on: BEL-7402 human hepatoma cells; assay: Tumor cell growth inhibition in vitro, MTT assay; format: cell-based
Description: as §1

[6] = tested on: KB human epidermoid carcinoma cells; assay: Tumor cell growth inhibition in vitro, MTT assay; format: cell-based
Description: as §1

[7] = tested on: A549 human non-small cell lung cancer cells; assay: Tumor cell growth inhibition in vitro, MTT assay; format: cell-based
Description: as §1

[8] = in vivo
Description: In addition, non-clinical pharmacokinetic studies of Icotinib hydrochloride Crystalline Form I in Beagle dogs and rats were conducted.

[9] = Pharmacology and toxicology experiments, safety pharmacology; format: in vivo, Beagle dogs, mice, and rats
Description: Pharmacology and toxicology experiments in Beagle dogs, mice, and rats using Icotinib hydrochloride Crystalline Form I were also conducted.

[10] = tested on: EGFR tyrosine kinase-mediated intracellular protein tyrosine phosphorylation in A431 cells; assay: Inhibition of EGFR-mediated protein phosphorylation at the cellular level (A431 cells, EGF-stimulated, anti-phosphotyrosine blot); format: cell-based; conditions: Homo sapiens
Description: Methods: The experiment utilized a high EGFR-expressing cell line, A431 (human epidermoid carcinoma). A431 cells in logarithmic growth phase were seeded into 12-well cell culture plates (5×10^5 cells/well); the cells were grown in DMEM cell culture medium (Gibco Company) containing 10% fetal calf serum (FCS) at 37° C. in 5% CO2 for 18 hours. The cells were washed twice with PBS buffer, and DMEM without FCS was then added. After incubating for 18 hours, Icotinib hydrochloride Crystalline Form I in dimethyl sulfoxide (DMSO) was added to individual wells at final concentrations of 0, 10, 50, 250 or 1000 nM. After incubating at 37° C. for 2.5 hours, 100 ng/ml of EGF was added to stimulate the cells for 5 minutes. Cells were then extracted in the presence 1 mM vanadate (inhibits dephosphorylation) to collect total cellular proteins, and proteins were resolved by 10% SDS-PAGE and transferred to nitrocellulose. Following detection of phosphorylated proteins with anti-phosphotyrosine antibodies (PY99 and 4G10, Upstate Biotech) and visualization with a horseradish peroxidase-labeled second antibody (Transduction Laboratories, Inc.) and ECL chemiluminescence (Amersham Corp.), bands were quantified by densitometry. Membranes were then stripped and incubated with anti-EGFR antibodies to compare amounts of EGFR in cells exposed to different concentrations of Icotinib hydrochloride Crystalline Form I as an internal control. Inhibition (%)=(1−kinase activity of the test group/kinase activity of control group)×100%

C#Cc1cccc(Nc2ncnc3cc4c(cc23)OCCOCCOCCO4)c1.Cl [4-[(3-ethynyl-phenyl)amino]-6,7-benzo-12-crown-quinazoline hydrochloride]
IC50 ([1]; BGC-823, 96 hr, listed as lcotinib hydrochloride Crystalline Form I, hydrochloride): 4.06 µM | IC50 ([1]; Homo sapiens, BGC-823, 96 h): 4 µM | IC50 [2]: 1000 nM | IC50 ([3]; H460, 96 hr, listed as lcotinib hydrochloride Crystalline Form I, hydrochloride): 16.1 µM | IC50 ([3]; Homo sapiens, NCI-H460, 96 h): 16 µM | activity against tumor cells (in words) ([4]; HCT8): low activity | IC50 ([4]; Homo sapiens, HCT-8, HCT8, 96 hr, MTT): > 200 µM | activity against tumor cells (in words) ([5]; BEL-7402): low activity | IC50 ([5]; Homo sapiens, BEL-7402, 96 hr, MTT): > 200 µM | activity against tumor cells (in words) [6]: low activity | IC50 ([6]; Homo sapiens, 96 hr, MTT): 40.7 µM | IC50 ([7]; A549, 96 hr, listed as lcotinib hydrochloride Crystalline Form I, hydrochloride): 12.2 µM | IC50 ([7]; Homo sapiens, A549, 96 h): 12 µM | route of elimination [8]: mainly through fecal excretion | tissue distribution [8]: widely distributed to various tissues, but was low in brain tissue | Tmax ([8]; Beagle (dogs), rat, dog, po): ~1 h | bioavailability ([8]; Beagle (dogs), rat, dog, po): 27 to 62% | bone marrow toxicity ([9]; Beagle dogs, mice, and rats): no bone marrow toxicity | liver toxicity ([9]; Beagle dogs, mice, and rats): reversible liver toxicity | oral toxicity ([9]; Beagle dogs, mice, and rats): low oral toxicity | teratogenic, mutagenic and reproductive toxicity ([9]; additional toxicity testing): no teratogenic, mutagenic and reproductive toxicity | effect on autonomic nervous system activity or the central nervous system ([9]; safety pharmacological test): no effect | effect on respiration, blood pressure and circulatory function ([9]; safety pharmacological test): no effect | EC50 ([10]; A-431, read-out: median effective concentration (EC50)): ~50 nM | inhibition at 0.01 µM ([10]; A-431, A431 cells, 10 nM, read-out: inhibition of EGF-induced intracellular protein tyrosine phosphorylation): 5.4% | inhibition at 0.05 µM ([10]; A-431, A431 cells, 50 nM, read-out: inhibition of EGF-induced intracellular protein tyrosine phosphorylation): 52.9% | inhibition at 0.25 µM ([10]; A-431, A431 cells, 250 nM, read-out: inhibition of EGF-induced intracellular protein tyrosine phosphorylation): 61.9% | inhibition at 1 µM ([10]; A-431, A431 cells, 1000 nM, read-out: inhibition of EGF-induced intracellular protein tyrosine phosphorylation): 63.7%
